Source: ChEMBL document CHEMBL1201862, “PubChem BioAssay data set” (2004)
Calls of active or inactive are those of the source.

Legend:
[1] = cytotoxicity toward NIH3T3 fibroblasts, dose response, counter-screen, cell-based, ATP luminescence, mouse fibroblasts (AID 2010); assay type: functional;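 note: cells exposed to compound for about 90 hours before reading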
Steroidogenic factor 1 = Steroidogenic factor 1 (Homo sapiens, UniProt Q13285); assay: Counterscreen for inverse agonists of the liver receptor homolog-1 (LRH-1; NR5A2): Luminescence-based cell-based high throughput dose response assay to identify inverse agonists of the Steroidogenic Factor 1 Nuclear Receptor (SF1; NR5A1).; assay type: functional
Steroidogenic factor 1, sequence (Q13285 whole entry): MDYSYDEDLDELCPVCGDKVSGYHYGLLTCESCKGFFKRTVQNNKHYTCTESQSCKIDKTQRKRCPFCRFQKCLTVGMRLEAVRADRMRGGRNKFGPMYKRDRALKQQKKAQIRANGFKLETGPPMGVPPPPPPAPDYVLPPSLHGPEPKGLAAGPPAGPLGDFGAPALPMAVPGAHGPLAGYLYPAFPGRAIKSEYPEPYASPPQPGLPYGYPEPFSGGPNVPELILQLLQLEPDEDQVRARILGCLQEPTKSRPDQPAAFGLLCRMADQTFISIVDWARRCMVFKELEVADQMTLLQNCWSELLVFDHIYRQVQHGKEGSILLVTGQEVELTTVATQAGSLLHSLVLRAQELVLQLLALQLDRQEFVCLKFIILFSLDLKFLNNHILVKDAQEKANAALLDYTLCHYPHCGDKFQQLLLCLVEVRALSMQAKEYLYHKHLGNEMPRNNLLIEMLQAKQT

[2] = StAR promoter reporter inhibition counter-screen, dose response, counter-screen for LRH-1 inverse agonist project, cell-based, luminescence, luciferase reporter (AID 651969); assay type: functional
[3] = molecular target: Nuclear receptor subfamily 5 group A member 2 (Homo sapiens, UniProt O00482); assay type: functional, cell-based;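 note: HEK293T cells transfected with LRH-1 and a StAR promoter luciferase reporter; potency for inhibitors that lower LRH-1 driven reporter light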
Nuclear receptor subfamily 5 group A member 2, sequence (O00482 whole entry): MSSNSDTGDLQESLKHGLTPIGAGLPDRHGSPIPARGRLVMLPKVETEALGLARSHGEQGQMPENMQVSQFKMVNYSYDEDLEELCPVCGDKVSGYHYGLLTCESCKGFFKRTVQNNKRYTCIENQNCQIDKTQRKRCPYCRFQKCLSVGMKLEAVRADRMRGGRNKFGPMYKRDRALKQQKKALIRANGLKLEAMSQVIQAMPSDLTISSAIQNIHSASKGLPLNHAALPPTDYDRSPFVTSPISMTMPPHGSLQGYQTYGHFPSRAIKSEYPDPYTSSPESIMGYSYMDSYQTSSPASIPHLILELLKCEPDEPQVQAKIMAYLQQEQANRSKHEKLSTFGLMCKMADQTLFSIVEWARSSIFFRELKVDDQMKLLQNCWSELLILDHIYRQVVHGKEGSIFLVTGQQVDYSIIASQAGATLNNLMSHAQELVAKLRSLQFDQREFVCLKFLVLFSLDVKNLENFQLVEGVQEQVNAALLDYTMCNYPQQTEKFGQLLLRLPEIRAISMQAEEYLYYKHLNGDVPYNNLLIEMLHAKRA

[4] = inhibitors of intracellular T. cruzi replication, confirmation, NIH3T3 host cells, beta-gal luminescence (AID 2044); assay type: functional, cell-based;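 note: intracellular parasites grown in NIH/3T3 mouse fibroblasts as host cells; luminescent beta-galactosidase reporter signal from transgenic T. cruzi replicating inside host cells; inhibitors lower the luminescence signal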
[5] = molecular target: NAD-dependent protein deacylase sirtuin-5, mitochondrial (Homo sapiens, UniProt Q9NXA8); assay: SIRT5 desuccinylase inhibitors, dose response, biochemical, fluorescence imaging, cherry-pick, set 5 (AID 720591);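 note: desuccinylation of succinyl peptide AMC substrate read as fluorescence after trypsin release; potency of inhibitors that lower fluorescence and may act on trypsin instead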
NAD-dependent protein deacylase sirtuin-5, mitochondrial, sequence (Q9NXA8 whole entry): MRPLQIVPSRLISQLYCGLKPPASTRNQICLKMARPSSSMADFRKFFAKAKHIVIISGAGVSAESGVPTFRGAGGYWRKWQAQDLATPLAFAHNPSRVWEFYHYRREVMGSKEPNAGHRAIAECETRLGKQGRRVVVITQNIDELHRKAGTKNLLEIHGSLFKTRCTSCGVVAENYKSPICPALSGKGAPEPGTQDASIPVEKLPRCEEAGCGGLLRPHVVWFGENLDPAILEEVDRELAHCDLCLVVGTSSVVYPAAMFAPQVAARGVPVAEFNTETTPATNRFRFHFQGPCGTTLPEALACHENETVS

Beta-lactamase [6] = molecular target: T1, Beta-lactamase (Pseudomonas aeruginosa, UniProt Q79MP6); assay: IMP-1 metallo-beta-lactamase inhibitors, dose response, selectivity assay for VIM-2 inhibitor project, biochemical, epi-absorbance (AID 1920)
T1 sequence (Q79MP6 whole entry): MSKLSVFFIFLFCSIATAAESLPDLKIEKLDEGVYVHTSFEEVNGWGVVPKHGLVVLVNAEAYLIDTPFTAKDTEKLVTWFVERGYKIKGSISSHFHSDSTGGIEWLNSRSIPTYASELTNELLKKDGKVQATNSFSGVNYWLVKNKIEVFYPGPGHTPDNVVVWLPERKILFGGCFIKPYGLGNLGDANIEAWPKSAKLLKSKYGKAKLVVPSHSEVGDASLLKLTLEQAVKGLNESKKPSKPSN

Beta-lactamase [7] = molecular target: Beta-lactamase (Salmonella choleraesuis (strain SC-B67), UniProt Q5J463); assay: Epi-absorbance-based counterscreen for selective VIM-2 inhibitors: dose response biochemical high throughput screening assay to identify inhibitors of TEM-1 serine-beta-lactamase.
Beta-lactamase (Salmonella choleraesuis (strain SC-B67), UniProt Q5J463), sequence (Q5J463 whole entry): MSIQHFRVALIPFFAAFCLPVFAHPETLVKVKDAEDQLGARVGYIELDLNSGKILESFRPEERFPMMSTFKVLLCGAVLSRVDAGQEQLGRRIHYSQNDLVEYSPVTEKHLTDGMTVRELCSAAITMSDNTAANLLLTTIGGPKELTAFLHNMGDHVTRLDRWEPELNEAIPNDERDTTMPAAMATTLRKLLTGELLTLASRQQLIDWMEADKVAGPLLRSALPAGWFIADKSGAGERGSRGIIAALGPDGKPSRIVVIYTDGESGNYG

Beta-lactamase [8] = molecular target: T1, Beta-lactamase; assay: […] counterscreen for selective VIM-2 inhibitors: dose response biochemical high throughput screening assay to identify inhibitors of IMP-1 metallo-beta-lactamase.
[9] = molecular target: Dual specificity tyrosine-phosphorylation-regulated kinase 1A (Rattus norvegicus, UniProt Q63470); assay type: biochemical, Homo sapiens
[10] = molecular target: T2, Methionyl-tRNA synthetase, putative (Trypanosoma brucei brucei, UniProt Q38C91); assay type: functional, Trypanosoma brucei brucei strain 927/4 GUTat10.1
T2 sequence (Q38C91 whole entry): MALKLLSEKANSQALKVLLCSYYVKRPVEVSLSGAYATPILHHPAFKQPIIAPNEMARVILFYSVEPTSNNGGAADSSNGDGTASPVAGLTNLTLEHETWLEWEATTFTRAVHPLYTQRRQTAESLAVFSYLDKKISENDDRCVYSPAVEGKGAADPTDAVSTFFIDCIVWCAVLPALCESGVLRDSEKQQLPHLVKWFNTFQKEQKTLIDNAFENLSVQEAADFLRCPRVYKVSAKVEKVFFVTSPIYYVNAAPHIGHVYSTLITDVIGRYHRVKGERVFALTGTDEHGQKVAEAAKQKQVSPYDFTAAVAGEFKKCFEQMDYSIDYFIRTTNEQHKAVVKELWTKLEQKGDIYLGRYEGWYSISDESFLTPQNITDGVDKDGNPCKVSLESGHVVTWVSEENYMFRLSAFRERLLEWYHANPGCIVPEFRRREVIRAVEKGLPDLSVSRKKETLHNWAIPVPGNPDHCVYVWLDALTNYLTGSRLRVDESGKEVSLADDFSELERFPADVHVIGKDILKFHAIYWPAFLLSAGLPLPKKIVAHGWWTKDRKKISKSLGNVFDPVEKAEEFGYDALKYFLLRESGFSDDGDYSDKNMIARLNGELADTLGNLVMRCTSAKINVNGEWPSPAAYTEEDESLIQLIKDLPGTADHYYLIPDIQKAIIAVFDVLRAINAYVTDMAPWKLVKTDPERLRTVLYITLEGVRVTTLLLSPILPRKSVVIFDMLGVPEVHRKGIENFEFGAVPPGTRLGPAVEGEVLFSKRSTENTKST

[11] = Counterscreen for inhibitors of Trypanosoma brucei methionyl tRNA synthetase (MetRS): Luminescence-based cell-based high throughput dose response assay to identify compounds that are cytotoxic to Jurkat human T lymphocyte cells.; assay type: functional
[12] = molecular target: T2, Methionyl-tRNA synthetase, putative; assay type: functional, Trypanosoma brucei brucei strain 927/4 GUTat10.1; remark: listed apart in the source
[13] = Shn3 3'UTR reporter inhibitors, dose response, cell-based, Clone20 osteoblasts, firefly luciferase, cherry-picked (AID 624132); assay type: functional;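 note: firefly luciferase luminescence from reporter carrying the Shn3 3'UTR in osteoblasts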
Caspase-6 = molecular target: T3, Caspase-6 (Homo sapiens, UniProt P55212); assay: human caspase-6 inhibitors, dose response, biochemical, VEID-R110 fluorescence, cherry-pick (AID 720632)
T3 sequence (P55212 whole entry): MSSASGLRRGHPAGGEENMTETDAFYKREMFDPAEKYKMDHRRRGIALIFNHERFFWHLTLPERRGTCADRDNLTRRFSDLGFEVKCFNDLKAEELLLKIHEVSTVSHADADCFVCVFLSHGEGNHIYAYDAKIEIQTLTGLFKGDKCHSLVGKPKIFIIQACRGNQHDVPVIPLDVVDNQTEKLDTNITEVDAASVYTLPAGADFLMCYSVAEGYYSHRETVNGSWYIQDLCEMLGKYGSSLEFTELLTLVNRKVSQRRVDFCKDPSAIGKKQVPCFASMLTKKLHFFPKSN

[14] = control 3'UTR Renilla luciferase suppression, dose response, counter-screen for Shn3 inhibitor project, cell-based, Clone20-Shn3RL, cherry-picked (AID 624133); assay type: functional
[15] = HepG2 cell cytotoxicity, dose response, cytotoxicity control for Shn3 inhibitor project, CellTiter-Glo, cherry-picked (AID 624134); assay type: functional, cell-based
[16] = molecular target: T4, Sentrin-specific protease 1 (Homo sapiens, UniProt Q9P0U3); assay: potency of human SENP1 inhibitors, dose response, biochemical, kinetic FRET (AID 651697); assay type: functional; settings: read-out: IC50_Mean
T4 sequence (Q9P0U3 whole entry): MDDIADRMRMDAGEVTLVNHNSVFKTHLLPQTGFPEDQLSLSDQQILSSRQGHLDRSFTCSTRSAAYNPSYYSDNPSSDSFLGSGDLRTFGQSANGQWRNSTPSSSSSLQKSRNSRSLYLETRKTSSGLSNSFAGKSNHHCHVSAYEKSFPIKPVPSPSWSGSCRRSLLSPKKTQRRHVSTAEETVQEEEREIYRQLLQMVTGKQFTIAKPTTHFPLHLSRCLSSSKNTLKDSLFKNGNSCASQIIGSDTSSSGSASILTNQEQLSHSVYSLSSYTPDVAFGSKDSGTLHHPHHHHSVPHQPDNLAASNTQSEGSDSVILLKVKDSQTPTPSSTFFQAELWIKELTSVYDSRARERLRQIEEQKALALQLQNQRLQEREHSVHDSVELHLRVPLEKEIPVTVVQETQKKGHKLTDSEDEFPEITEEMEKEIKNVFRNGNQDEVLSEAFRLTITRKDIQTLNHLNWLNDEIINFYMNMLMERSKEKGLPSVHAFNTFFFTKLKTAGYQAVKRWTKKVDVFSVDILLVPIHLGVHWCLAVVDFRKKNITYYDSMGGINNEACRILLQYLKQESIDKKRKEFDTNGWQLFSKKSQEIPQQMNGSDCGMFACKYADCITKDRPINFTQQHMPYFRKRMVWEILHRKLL

[17] = molecular target: T4, Sentrin-specific protease 1; assay: Dose response confirmation of small molecule inhibitors of the catalytic domain of the SUMO protease, SENP1 in a FRET assay.; assay type: functional; settings: read-out: IC50_Mean
[18] = ADAM10 inhibitors, peptide cleavage, dose response, biochemical, QFRET (AID 743254);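 note: ADAM10 enzyme with the DM2 quenched FRET peptide as substrate; EDANS fluorescence gain as the protease cuts the substrate; inhibitor potency against ADAM10 proteolytic activity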
[19] = molecular target: Disintegrin and metalloproteinase domain-containing protein 17 (Homo sapiens, UniProt P78536); assay: ADAM17 protease inhibitors, dose response, counter-screen for ADAM10 exosite inhibitor project, biochemical, quenched FRET substrate (AID 743253)
Disintegrin and metalloproteinase domain-containing protein 17, sequence (P78536 whole entry, the tested form may be a part): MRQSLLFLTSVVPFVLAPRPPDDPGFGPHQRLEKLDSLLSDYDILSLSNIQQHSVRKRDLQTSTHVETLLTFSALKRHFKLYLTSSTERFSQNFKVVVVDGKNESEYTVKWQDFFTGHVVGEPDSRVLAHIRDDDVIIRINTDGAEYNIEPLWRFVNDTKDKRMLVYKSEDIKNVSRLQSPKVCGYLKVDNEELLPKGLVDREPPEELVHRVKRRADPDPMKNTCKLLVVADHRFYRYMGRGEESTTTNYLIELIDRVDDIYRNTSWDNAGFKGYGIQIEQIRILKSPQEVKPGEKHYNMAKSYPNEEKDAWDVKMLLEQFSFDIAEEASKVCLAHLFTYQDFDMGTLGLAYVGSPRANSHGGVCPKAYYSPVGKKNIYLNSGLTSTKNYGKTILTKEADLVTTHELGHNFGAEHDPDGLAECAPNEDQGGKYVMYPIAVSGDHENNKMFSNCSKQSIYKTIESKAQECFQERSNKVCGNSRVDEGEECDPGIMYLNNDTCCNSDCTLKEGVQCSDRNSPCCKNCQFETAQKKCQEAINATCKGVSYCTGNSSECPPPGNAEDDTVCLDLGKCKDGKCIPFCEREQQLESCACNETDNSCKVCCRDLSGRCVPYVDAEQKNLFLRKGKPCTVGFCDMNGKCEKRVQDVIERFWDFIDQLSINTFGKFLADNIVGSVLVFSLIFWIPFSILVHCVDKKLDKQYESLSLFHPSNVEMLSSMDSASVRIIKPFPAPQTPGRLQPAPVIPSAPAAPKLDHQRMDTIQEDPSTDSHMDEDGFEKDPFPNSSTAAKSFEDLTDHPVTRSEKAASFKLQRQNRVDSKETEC

Albumin = Albumin (Bos taurus, UniProt P02769); assay: Counterscreen for inhibitors of T-cell receptor (TCR)-CD3 interaction: Fluorescence-based biochemical high throughput dose response assay to identify inhibitors of T-cell receptor (TCR)-CD3 interaction using a TAMRA-labeled BSA probe.; assay type: functional
Albumin, sequence (P02769 whole entry): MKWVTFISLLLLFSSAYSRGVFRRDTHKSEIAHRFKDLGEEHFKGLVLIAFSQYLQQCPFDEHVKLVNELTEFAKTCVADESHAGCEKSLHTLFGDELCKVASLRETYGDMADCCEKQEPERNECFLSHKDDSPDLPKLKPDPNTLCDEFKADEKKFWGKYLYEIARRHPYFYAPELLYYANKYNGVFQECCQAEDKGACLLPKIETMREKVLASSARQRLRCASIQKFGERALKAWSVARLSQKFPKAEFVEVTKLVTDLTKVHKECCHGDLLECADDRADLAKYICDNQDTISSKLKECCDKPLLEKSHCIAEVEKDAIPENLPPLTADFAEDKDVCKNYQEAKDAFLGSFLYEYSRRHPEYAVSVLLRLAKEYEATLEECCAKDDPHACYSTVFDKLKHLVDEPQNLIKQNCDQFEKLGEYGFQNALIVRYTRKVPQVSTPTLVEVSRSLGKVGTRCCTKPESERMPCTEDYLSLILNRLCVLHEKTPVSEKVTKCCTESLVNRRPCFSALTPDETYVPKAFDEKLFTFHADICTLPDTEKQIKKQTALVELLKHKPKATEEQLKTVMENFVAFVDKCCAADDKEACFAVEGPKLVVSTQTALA

Question: For `CN1CCN(c2ccc(S(=O)(=O)N3CCCCC3)cc2NC(=O)COc2ccc([N+](=O)[O-])cc2)CC1`, which EC50 [1] is on record?
Answer: > 30 µM (not active)

Question: What about the IC50 (Steroidogenic factor 1) of the same molecule?
Answer: 1.48 µM (active)

Question: And the IC50 [2]?
Answer: 35.9 µM (inactive)

Question: What about the IC50 [3] of the same molecule?
Answer: 35.9 µM (inactive)

Question: What about the EC50 [4] of the same molecule?
Answer: 0.353 µM (active)

Question: With `COc1ccc(CC(=O)NC(C)c2nnc(SCCOc3ccc(OC)cc3)n2C)cc1` (stereo not drawn) as the molecule, how does the AC50 [5] read?
Answer: 24.2 µM (active)

Question: With `O=C(O)c1[nH]c2ccc(Cl)cc2c1CCN1C(=O)c2ccccc2C1=O` as the molecule, how does the IC50 (Beta-lactamase [6]) read?
Answer: > 59.6 µM (inactive)

Question: What about the IC50 (Beta-lactamase [7]) of the same molecule?
Answer: > 59.6 µM (inactive)

Question: What about the IC50 (Beta-lactamase [8]) of the same molecule?
Answer: > 59.6 µM (inactive)

Question: And the AC50 [9]?
Answer: 13.6 µM (active)

Question: For `Clc1cccc(CNc2nc(-c3cccnc3)nc3ccccc23)c1`, which IC50 [10] is on record?
Answer: 16.4 µM (inactive)

Question: And the EC50 [1]?
Answer: > 60 µM (not active)

Question: What about the IC50 [11] of the same molecule?
Answer: 41.9 µM (inactive)

Question: What about the EC50 [4] of the same molecule?
Answer: 0.952 µM (active)

Question: What about the IC50 [12] of the same molecule?
Answer: 32 µM (inactive)

Question: For `COc1ccc(-c2cc(C(F)(F)F)nc(N3CCN(C)CC3)n2)cc1`, which IC50 (Beta-lactamase [6]) is on record?
Answer: > 59.6 µM (inactive)

Question: And the IC50 (Beta-lactamase [7])?
Answer: > 59.6 µM (inactive)

Question: What about the IC50 (Beta-lactamase [8]) of the same molecule?
Answer: > 59.6 µM (inactive)

Question: For `CC1CCCC(C)N1C(=O)CSc1nnc(NC(=O)c2cccs2)s1` (stereo not drawn), which IC50 (Beta-lactamase [6]) is on record?
Answer: > 59.6 µM (inactive)

Question: And the IC50 (Beta-lactamase [7])?
Answer: > 59.6 µM (inactive)

Question: And the IC50 (Beta-lactamase [8])?
Answer: > 59.6 µM (inactive)

Question: What does the source list for `Cc1cc(C(=O)NNS(=O)(=O)c2cc(C(=O)O)ccc2Cl)c(C)n1-c1ccccc1`?
Answer: AC50 [13]: 25.7 µM (active); AC50 (Caspase-6): 23.2 µM (active); AC50 [14]: 16.9 µM (active); AC50 [15]: > 70 µM (inactive)

Question: Which IC50 [16] does the source give for `Cc1cc(NC(=O)CSc2nc3ccccc3cc2C#N)no1` here?
Answer: 19.3 µM (active)

Question: What about the IC50 [17] of the same molecule?
Answer: 11 µM (active)

Question: For `COC(=O)c1ccc(-c2cc3onc(-c4ccccc4)c3c(=O)n2C)cc1`, which IC50 [18] is on record?
Answer: > 69.5 µM (inactive)

Question: And the IC50 [19]?
Answer: > 69.5 µM (inactive)

Question: For `COc1ccc(C(=O)NNC(=S)NC(=O)c2cccnc2)cc1`, which IC50 (Albumin) is on record?
Answer: > 94.1 µM (inactive)

Question: Which IC50 (Steroidogenic factor 1) does the source give for `CCCc1cc(=O)oc2cc(OCC(=O)NCc3ccccn3)ccc12` here?
Answer: 1.97 µM (active)

Question: What about the IC50 [2] of the same molecule?
Answer: 35.9 µM (inactive)

Question: What about the IC50 [3] of the same molecule?
Answer: 35.9 µM (inactive)
